Patent US11040028B2, “Penicinotam derivative, preparation method and use thereof” (OCEAN UNIVERSITY OF CHINA, priority 2017, dated 2021)

Legend:
Assay type in all cases: cell-based
[1] = system: BHK-21 cells; assay: Anti-fibrosis activity test: inhibition of BHK-21 cell proliferation (CCK-8); details: Mesocricetus auratus, BHK-21, 48 h
Summary of the method: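 Cells plated 2×10^4 cells/mL; 24 h attach; compound dilutions, triplicate, 48 h, 37° C/5% CO2; CCK-8 2 h; A450; IR = (1−Ai/Ao)×100%; IC50 by curve fit.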

[2] = system: human lung fibroblasts HFL1; assay: Anti-fibrosis activity test: inhibition of proliferation of human lung fibroblasts HFL1 (CCK-8); details: Homo sapiens, HFL1, 48 h
Summary of the method: (§1)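 Using CCK-8 colorimetry (450 nm), the study assessed growth inhibition after 48 h compound exposure; plating density was 2×10^4 cells/mL with 24 h attachment beforehand. IC50 was calculated from (1−Ai/Ao)×100%.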

[3] = system: human hepatic stellate cells LX-2; assay: Anti-fibrosis activity test: inhibition of proliferation of human hepatic stellate cells LX-2 (CCK-8); details: Homo sapiens, 48 h
Summary of the method: as §1

[4] = system: human fibrosarcoma cells HT-1080; assay: Anti-fibrosis activity test: inhibition of proliferation of human fibrosarcoma cells HT-1080 (CCK-8); details: Homo sapiens, HT-1080, 48 h
Summary of the method: as §1

[5] = system: human dermal fibroblasts CCC-ESF-1; assay: Anti-fibrosis activity test: inhibition of proliferation of human dermal fibroblasts CCC-ESF-1 (CCK-8); details: Fibroblast
Summary of the method: as §1

[6] = system: human embryonic lung fibroblast IMR-90; assay: Anti-fibrosis activity test: inhibition of proliferation of human embryonic lung fibroblast IMR-90 (CCK-8)
Summary of the method: as §1

[7] = system: cardiac fibroblast RAT-iCell-C002; assay: Anti-fibrosis activity test: inhibition of proliferation of cardiac fibroblast RAT-iCell-C002 (CCK-8); details: Cardiac fibroblast, 48 h
Summary of the method: as §1

[8] = system: NF-κB; assay: Immunological activity test: inhibition of NF-κB activity; details: initial concentration of 30 μM; a/b isomers given as first/second symbol; read-out: IC50 (μM), inhibitory activity against NF-κB
Summary of the method: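 Initial screen at 30 μM; parthenolide positive control. IC50s derived from follow-up analysis.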

[9] = system: mouse macrophages (RAW264.7); assay: Lipopolysaccharide-induced NO secretion in macrophages (Griess); details: Mus musculus, RAW264.7, 24 h, RAW264.7, LPS 1 μg/ml, a/b isomers given as first/second symbol, read-out: IC50 (μM), inhibition of lipopolysaccharide-induced NO secretion in macrophages
Summary of the method: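 Indomethacin and resveratrol served as positive controls while compounds were tested across concentrations on LPS-stimulated (1 μg/ml, 24 h) RAW264.7 cells. NO output was quantified colorimetrically (Griess, 548 nm).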

[10] = CCK-8, 48 hours after administration
[11] = human lung fibroblasts HFL1, CCK-8, 48 hours
[12] = human hepatic stellate cells LX-2, CCK-8, 48 hours
[13] = human fibrosarcoma cells HT-1080, CCK-8, 48 hours
[14] = human dermal fibroblasts CCC-ESF-1, CCK-8, 48 hours
[15] = human embryonic lung fibroblast IMR-90, CCK-8, 48 hours
[16] = cardiac fibroblast RAT-iCell-C002, CCK-8, 48 hours
[17] = Homo sapiens, CCC-ESF-1 cells, 48 h, CCK-8
[18] = Homo sapiens, IMR-90 cells, 48 h, CCK-8

Structure (SMILES)	IC50 [4, 13] [mM]	IC50 [8] [µM]	IC50 [9] [µM]	IC50 ([4]; HT-1080 cells, 48 h, CCK-8) [mM]	IC50 [1, 10] [mM]	IC50 [2, 11] [mM]	IC50 [3, 12] [mM]	IC50 [5, 14] [mM]	IC50 [6, 15] [mM]	IC50 [7, 16] [mM]	IC50 ([1]; 48 h, CCK-8) [mM]	IC50 ([2]; HFL1 cells, 48 h, CCK-8) [mM]	IC50 ([3]; LX-2, 48 h, LX-2 cells, CCK-8) [mM]	IC50 [5, 17] [mM]	IC50 [6, 18] [mM]	IC50 ([7]; RAT-iCell-C002 cells, CCK-8) [mM]
Cc1ccccc1COc1c2c(nc3ccccc13)-c1cccn1C2=O [Compound 574b, 9-((2-methylbenzyl)oxy)-10H-pyrrolizino[1,2-b]quinolin-10-one]	0.05 to 5	1 to 10	10 to 50	–	0.05 to 5	0.05 to 5	0.05 to 5	0.05 to 5	0.05 to 5	0.05 to 5	–	–	–	–	–	–
COc1c2c(nc3ccc(F)cc13)-c1cccn1C2=O [Compound 157b, 7-fluoro-9-methoxy-10H-pyrrolizino[1,2-b]quinolin-10-one]	0.05 to 5	0.1 to 1	1 to 10	–	0.05 to 5	0.05 to 5	0.05 to 5	0.05 to 5	0.05 to 5	0.05 to 5	–	–	–	–	–	–
O=C1c2c(nc3ccc(Br)cc3c2O)-c2cccn21 [Compound 246b, 7-bromo-9-hydroxy-10H-pyrrolizino[1,2-b]quinolin-10-one]	0.05 to 5	1 to 10	1 to 10	–	0.05 to 5	0.05 to 5	0.05 to 5	0.05 to 5	0.05 to 5	0.05 to 5	–	–	–	–	–	–
COc1cc(Cn2c3c(c(=O)c4ccccc42)C(=O)n2cccc2-3)cc(OC)c1 [Compound 580a, 4-(3,5-Dimethoxybenzyl)-9H-pyrrolizino[1,2-b]quinoline-9,10(4H)-dione]	0.05 to 5	1 to 10	0.1 to 1	–	0.05 to 5	0.05 to 5	0.05 to 5	0.05 to 5	0.05 to 5	0.05 to 5	–	–	–	–	–	–
O=C1c2c(nc3ccccc3c2OCc2ccc(Cl)cc2F)-c2cccn21 [Compound 602b, 9-((4-chloro-2-fluorobenzyl)oxy)-10H-pyrrolizino[1,2-b]quinolin-10-one]	0.05 to 5	1 to 10	1 to 10	–	0.05 to 5	0.05 to 5	0.05 to 5	0.05 to 5	0.05 to 5	0.05 to 5	–	–	–	–	–	–
Cc1cccc2[nH]c3c(c(=O)c12)-c1cccn1C3=O [Compound 776a, 10-Methyl-5H-pyrrolizino[2,1-b]quinoline-5,11(6H)-dione]	–	1 to 10	10 to 50	0.05 to 5	–	–	–	–	–	–	< 0.05	0.05 to 5	0.05 to 5	0.05 to 5	0.05 to 5	0.05 to 5
O=C1c2c(nc3ccccc3c2OCc2cc(C(F)(F)F)cc(C(F)(F)F)c2)-c2cccn21 [Compound 607b, 9-((3,5-bis(trifluoromethyl)benzyl)oxy)-10H-pyrrolizino[1,2-b]quinolin-10-one]	0.05 to 5	1 to 10	1 to 10	–	0.05 to 5	0.05 to 5	0.05 to 5	0.05 to 5	0.05 to 5	0.05 to 5	–	–	–	–	–	–
O=C1c2c(nc3ccccc3c2OCc2ccccc2F)-c2cccn21 [Compound 599b, 9-((2-fluorobenzyl)oxy)-10H-pyrrolizino[1,2-b]quinolin-10-one]	0.05 to 5	1 to 10	1 to 10	–	0.05 to 5	0.05 to 5	0.05 to 5	0.05 to 5	0.05 to 5	0.05 to 5	–	–	–	–	–	–
O=C1c2c(nc3cccc(Cl)c3c2OCc2cccc(Cl)c2)-c2cccn21 [Compound 478b, 8-chloro-9-((3-chlorobenzyl)oxy)-10H-pyrrolizino[1,2-b]quinolin-10-one]	0.05 to 5	10 to 50	1 to 10	–	0.05 to 5	0.05 to 5	0.05 to 5	0.05 to 5	0.05 to 5	0.05 to 5	–	–	–	–	–	–
Cc1cc2n(c1)C(=O)c1nc3ccccc3c(O)c1-2 [Compound 798b, 11-hydroxy-2-methyl-5H-pyrrolizino[2,1-b]quinolin-5-one]	–	1 to 10	1 to 10	0.05 to 5	–	–	–	–	–	–	0.05 to 5	0.05 to 5	0.05 to 5	0.05 to 5	0.05 to 5	0.05 to 5
O=C1c2c(n(Cc3ccc(Cl)cc3)c3cc(F)ccc3c2=O)-c2cccn21 [Compound 496a, 4-(4-Chlorobenzyl)-6-fluoro-9H-pyrrolizino[1,2-b]quinoline-9,10(4H)-dione]	0.05 to 5	10 to 50	10 to 50	–	0.05 to 5	0.05 to 5	0.05 to 5	0.05 to 5	0.05 to 5	0.05 to 5	–	–	–	–	–	–
COc1cccc(COc2c3c(nc4ccccc24)-c2cccn2C3=O)c1 [Compound 610b, 9-((3-methoxybenzyl)oxy)-10H-pyrrolizino[1,2-b]quinolin-10-one]	0.05 to 5	1 to 10	1 to 10	–	0.05 to 5	0.05 to 5	0.05 to 5	0.05 to 5	0.05 to 5	0.05 to 5	–	–	–	–	–	–

Further lines, with some results ahead:

IC50 [4, 13] [mM]	IC50 [8] [µM]	IC50 [9] [µM]	IC50 ([4]; HT-1080 cells, 48 h, CCK-8) [mM]	Structure (SMILES)	IC50 [1, 10] [mM]	IC50 [2, 11] [mM]	IC50 [3, 12] [mM]	IC50 [5, 14] [mM]	IC50 [6, 15] [mM]	IC50 [7, 16] [mM]	IC50 ([1]; 48 h, CCK-8) [mM]	IC50 ([2]; HFL1 cells, 48 h, CCK-8) [mM]	IC50 ([3]; LX-2, 48 h, LX-2 cells, CCK-8) [mM]	IC50 [5, 17] [mM]	IC50 [6, 18] [mM]	IC50 ([7]; RAT-iCell-C002 cells, CCK-8) [mM]
0.05 to 5	1 to 10	0.1 to 1	–	O=C(COc1c2c(nc3ccccc13)-c1cccn1C2=O)c1ccc(C(F)(F)F)cc1 [Compound 91b, 9-(2-oxo-2-(4-(trifluoromethyl)phenyl)ethoxy)-10H-pyrrolizino[1,2-b]quinolin-10-one]	0.05 to 5	< 0.05	5 to 20	0.05 to 5	0.05 to 5	0.05 to 5	–	–	–	–	–	–
–	0.1 to 1	1 to 10	0.05 to 5	Cc1ccc(C)c2c(O)c3c(nc12)-c1cccn1C3=O [Compound 772b, 9-hydroxy-5,8-dimethyl-10H-pyrrolizino[1,2-b]quinolin-10-one]	–	–	–	–	–	–	0.05 to 5	0.05 to 5	0.05 to 5	0.05 to 5	0.05 to 5	0.05 to 5
0.05 to 5	0.1 to 1	10 to 50	–	O=C1c2c(n(Cc3c(F)cccc3F)c3ccccc3c2=O)-c2cccn21 [Compound 615a, 4-(2,6-Difluorobenzyl)-9H-pyrrolizino[1,2-b]quinoline-9,10(4H)-dione]	0.05 to 5	0.05 to 5	0.05 to 5	0.05 to 5	0.05 to 5	0.05 to 5	–	–	–	–	–	–
0.05 to 5	1 to 10	1 to 10	–	COc1ccc2c(O)c3c(nc2c1)-c1cccn1C3=O [Compound 560b, 9-hydroxy-6-methoxy-10H-pyrrolizino[1,2-b]quinolin-10-one]	0.05 to 5	0.05 to 5	0.05 to 5	0.05 to 5	0.05 to 5	0.05 to 5	–	–	–	–	–	–
0.05 to 5	1 to 10	1 to 10	–	O=C1c2c(nc3ccccc3c2OCCN2CCOCC2)-c2cccn21 [Compound 662b, 9-(2-morpholinoethoxy)-10H-pyrrolizino[1,2-b]quinolin-10-one]	0.05 to 5	0.05 to 5	0.05 to 5	0.05 to 5	0.05 to 5	0.05 to 5	–	–	–	–	–	–
0.05 to 5	1 to 10	1 to 10	–	O=C1c2c(n(Cc3ccc(F)cc3)c3ccccc3c2=O)-c2cccn21 [Compound 588a, 4-(4-Fluorobenzyl)-9H-pyrrolizino[1,2-b]quinoline-9,10(4H)-dione]	0.05 to 5	0.05 to 5	0.05 to 5	0.05 to 5	0.05 to 5	0.05 to 5	–	–	–	–	–	–
